Results as given in patent US5962513A, “2-aminomethyl-chromans effective in the treatment of psychoses and depression” (Bayer Aktiengesellschaft, priority 1991, dated 1999).
Counter-ions that a name gives are not always drawn.

Tests used:
5-HT1 receptor = assay: Affinity for the 5-HT1 receptor, 3H-serotonin binding to calf hippocampus membranes; settings: 3H-serotonin radioligand
From the text: 1.) Affinity for the 5-HT1 receptor
The high affinity of the compounds according to the invention for 5-hydroxytryptamine receptors of the sub-type 1 is shown by way of example in Table A. The values given are data which have been determined from receptor binding studies using calf hippocampus membrane preparations. ^3 H-Serotonin was used as the radioactively labelled ligand for this.

5-HT1A receptor = target: T1, 5-HT1A receptor (Bos taurus, UniProt F6Q2H9); assay: Affinity for the 5-HT1A receptor, 3H-ipsapiron binding to calf hippocampus membranes; settings: 3H-ipsapiron radioligand
T1 construct: 5-HT1A receptors in calf hippocampus membranes; from tissue; host or cells: calf hippocampus membranes
T1 sequence (F6Q2H9 1-422): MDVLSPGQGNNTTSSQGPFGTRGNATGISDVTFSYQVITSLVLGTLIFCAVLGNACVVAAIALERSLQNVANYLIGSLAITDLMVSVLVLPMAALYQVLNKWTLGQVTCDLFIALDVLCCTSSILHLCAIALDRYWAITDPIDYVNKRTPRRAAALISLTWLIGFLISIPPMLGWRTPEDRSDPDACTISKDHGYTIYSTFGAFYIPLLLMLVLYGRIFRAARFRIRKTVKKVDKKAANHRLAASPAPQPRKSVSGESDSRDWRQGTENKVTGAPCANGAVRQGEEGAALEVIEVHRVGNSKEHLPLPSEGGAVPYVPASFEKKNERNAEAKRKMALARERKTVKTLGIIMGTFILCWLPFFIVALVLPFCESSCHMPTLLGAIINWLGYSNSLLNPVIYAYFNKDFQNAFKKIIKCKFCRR
Method: 2.) Affinity for the 5-HT1A receptor [W. U. Dompert et al., Naunyn-Schmeideberg's Arch. Pharmacol. (1985), 328, 467-470]. In this test, the binding of ^3 H-ipsapiron to 5-HT1A receptors in calf hippocampus membranes is measured.

sigma receptor = assay: Affinity for the sigma receptor, DTG binding to calf hippocampus membranes; settings: 3-di-o-tolyl-guanidine (DTG), Ki calculated from IC50
Method: 3.) Affinity for the sigma receptor The sigma receptor binding test is described in detail by E. Weber et al. (1986), Proc. Natl. Acad. Sci. 83, 8784-8788 and M. P. Kavanaugh et al., (1988), Proc. Natl. Acad. Sci. 85, 2844. […] In this binding test, IC50 values which indicate the test substance concentration at which 50% of the binding of the radioligand is suppressed are determined. The inhibition constants Ki are calculated from these taking into account the dissociation constants and the concentration of radioligands.

SMILES	Ki (5-HT1 receptor) [nM]	Ki (5-HT1A receptor) [nM]	Ki (sigma receptor) [nM]
CC(CCCNCC1CCc2ccccc2O1)c1ccccc1 (stereo not drawn) [Example 18]	3		
c1ccc2c(c1)CCC(CNCC1CC1)O2 (stereo not drawn) [Example 28]		2.3	
COc1cccc2c1OC(CNCc1ccc(C(F)(F)F)cc1)CC2 (stereo not drawn) [Example 22]	6		
c1ccc2c(c1)CCC(CNCC13CC4CC(CC(C4)C1)C3)O2 (stereo not drawn) [Example 31]		4.2	16
c1ccc2c(c1)CC[C@@H](CNCC1CCCCCC1)O2 [Example 1, S-(+)-2-(N-Cycloheptylmethyl)aminomethyl-chroman hydrochloride]			7
COc1cccc2c1OC(CNCC1CCCCC1)CC2 (stereo not drawn) [Example 17, N-Cyclohexylmethyl-2-aminomethyl-8-methoxychroman hydrochloride]		0.7	8
COc1cccc2c1O[C@@H](CN(C)CC1CCCCCC1)CC2 [Example 13, 2-(R)-2-(N-Cycloheptylmethyl-N-methyl)aminomethyl-8-methoxy-chroman hydrochloride]	36		5
c1ccc(CN2CCC(CNCC3CCc4ccccc4O3)CC2)cc1 (stereo not drawn) [Example 36]		0.5	25
CN(CC1CCN(Cc2ccccc2)CC1)CC1CCc2ccccc2O1 (stereo not drawn) [Example 35]		28	
COc1ccc(CNCC2CCc3cccc(OC)c3O2)cc1 (stereo not drawn) [Example 23]	5		30
